Assay results as given in patent US9192589B2, “Chalcones as enhancer of antimicrobial agents” (priority 2009, dated 2015).
Read-outs that look alike come from different tables or passages of the source.

Tests used:
[1] = system: A. Viscosus biofilm; assay: Inhibition of single species biofilm formation (BEC50, crystal violet); assay type: cell-based, Actinomyces viscosus; set-up: unit not given here; conditions: 24 hours; for BEC50 alone: agent alone
Method: Actinomyces viscosus (ATCC#43146) was grown in trypticase soy broth supplemented with 0.6% yeast extract (TSB-YE) at 37° C., static culture. For mixed species assays, the source of bacteria was a continuous culture chemostat inoculated with A. viscosus, Lactobacillus casei (ATCC #334), Streptococcus oxalis (ATCC #35037), Fusobacterium nucleatum (ATCC #10953), and Veilonella parvula (ATCC #17745). This mixed culture was maintained in a specialized complex medium in a continuous culture chemostat at 37° C.
To assess the bioenhancing ability of CK-4, inhibition of single species biofilm formation tests were conducted. Actives of interest were plated in the first column of a sterile 384-well culture plate and serial twofold dilutions were performed across the plate in 0.5× TSB. First generation cultures of A. Viscosus bacteria were grown overnight in TSB-YE. Cultures were diluted to an OD610˜0.2 in 0.5×TSB and plated in the wells containing serial dilutions of actives. Plates were incubated for 24 hours at 37° C. to allow growth and biofilm formation to occur.
Following incubation, supernatants were removed from the plate and remaining biofilms were stained with 0.03% Grain's crystal violet. Stained plates were read on a Perkin Elmer EnVision microplate reader for absorbance at 590 nm.

[2] = system: Fusobacterium nucleatum; assay: MIC of antibacterial agents alone and in combination with CK-4; assay type: cell-based; conditions: F. nucleatum
From the text: (§1) The checkerboard method is the most frequently used method to access the antimicrobial combinations in vitro. The term “checkerboard” refers to the pattern (of tubes or microtiter plate wells) formed by multiple dilutions of two drugs being tested (Eliopoulos G M, Moellering R C. Antimicrobial Combinations, in: Antibiotics in Laboratory Medicine: USA: Williams & Wilkins). In the present study the checkerboard consisted of columns in which each tube (or well) contains the same amount of the standard drug (antibacterial/antifungal/anti-TB/antiviral) being diluted along the x-axis and rows in which each tube (or well) contains the same amount of the potentiator being diluted on the y-axis. As a result each square in the checkerboard (which represents one tube/well or plate) contained a unique combination of the standard drug and potentiator. The concentration range of standard drug in the present study was 64 μg/ml to 0.03 μg/ml, whereas the potentiator was tested in the range of 500 μg/ml to 0.2 μg/ml. This checkerboard technique can be performed with liquid or semisolid (agar) media.
(§2) In the agar method the agar (Mueller Hinton agar, Middlebrook 7H10 agar) was autoclaved and allowed to cool to 55° C. to 50° C. The combination of the standard drug and the potentiator was added to the agar. Serial two fold dilutions of each of standard drug and the potentiator were prepared in appropriate solvents. In order to maintain the desired concentrations of both agar and drugs, and to rule out the effect of solvent, the volume of solvent (containing standard drug or potentiator) added to agar was kept small (i.e. ≦5% of the total volume). After the agar plates have been poured and allowed to dry, the bacteria to be tested were applied to the surface of agar with a replicating device designed to deliver a standard inoculum (approx 10^4 cfu/spot). The plates were incubated at 37° C. for 24 hrs (3 weeks in case of Mycobacterium tuberculosis).
(§3) The above-mentioned checkerboard was also performed with liquid media in a microtiter plate format. This method was used to study the combination of antibacterial/antifungal/antiviral drugs with potentiator.
(§4) Minimum Inhibitory Concentration (MIC) of triclosan alone and in combination with the above mentioned chalcone compound was performed against Streptococcus mutans, Actinomyces viscosus and Fusobacterium nucleatum, using method described in the study design.
(§5) Minimum Inhibitory Concentration (MIC) of magnolol alone and in combination with the above mentioned chalcone compound was performed against Streptococcus mutans, Actinomyces viscosus and Fusobacterium nucleatum, using method described in the study design.
(§6) Minimum Inhibitory Concentration (MIC) of honokiol alone and in combination with the above mentioned chalcone compound was performed against Streptococcus mutans, Actinomyces viscosus and Fusobacterium nucleatum, using method described in the study design.

[3] = system: Streptococcus mutans; assay: as above; assay type: cell-based; conditions: S. mutans
From the text: as §1, §2, §3, §4, §5, §6

[4] = system: Actinomyces viscosus; assay: as above; assay type: cell-based; conditions: A. viscosus
From the text: as §1, §2, §3, §4, §5, §6

[5] = system: Streptococcus mutans, Actinomyces viscosus and Fusobacterium nucleatum; assay: Fold reduction in MIC over the three oral bacteria; assay type: cell-based; conditions: in combination with CK-4; over S. mutans, A. viscosus and F. nucleatum
From the text: as §1, §2, §3, §4
Minimum Inhibitory Concentration (MIC) of magnolol alone and in combination with the above mentioned chalcone compound was performed against Streptococcus mutans, Actinomyces viscosus and Fusobacterium nucleatum, using method described in the study design. […]

[6] = system: Staphylococcus aureus ATCC 29213; assay: Systemic infection model of mice, ED50 of ciprofloxacin; assay type: in vivo, Swiss albino mice; conditions: ATCC29213, iv, after seven days of observation
Method: Efficacy testing will be done using standard procedures. Primary efficacy evaluation may be done using the murine septicemia model (Yun et al. Journal of Antimicrob. Chemother., 2002, 46: 3071-3074). In this model a supra-lethal dose of bacteria is used to challenge the rodents. Treatment is initiated, varying either or both time(s) of treatment and dose of antibiotic. In these experiments both the antibiotic and the efflux pump inhibitor doses are varied.
The study was conducted to see the in vivo response of ciprofloxacin in combination with the above-mentioned efflux pump inhibitor. The Swiss albino mice were infected intravenously with Staphylococcus aureus ATCC 29213 (10^7 CFU/mouse). The infected mice were divided in groups and each group consisted of 6 mice. The treatment consisted of one dose immediately after the infection followed by the next dose after a gap of 6 hrs. The result was recorded as number of survivals each day.

[7] = system: Staphylococcus aureus 1199B (NorA overexpressing); assay: Checkerboard MIC of ciprofloxacin alone and in combination with chalcone; assay type: cell-based; conditions: for MIC: Staphylococcus aureus
[8] = system: Staphylococcus aureus SA-K2191 (MsrA overexpressing); assay: Checkerboard MIC of erythromycin alone and in combination with chalcone; assay type: cell-based; conditions: for MIC: Staphylococcus aureus
[9] = system: Staphylococcus aureus SA-K2192 (TetK overexpressing); assay: Checkerboard MIC of tetracycline alone and in combination with chalcone; assay type: cell-based
[10] = Fusobacterium nucleatum, agent alone, read-out: MIC
[11] = Streptococcus mutans, agent alone, read-out: MIC
[12] = Actinomyces viscosus, agent alone, read-out: MIC
[13] = in combination with CK-4 at 50 μg/ml
[14] = in combination with CK-14 at 50 μg/ml

Compound | BEC50 alone [1] | BEC50 with CK-4 [1] | MIC ([2]; with CK-4 6.25 μg/ml) [µg/mL] | MIC ([2]; with CK-4 12.5 μg/ml) [µg/mL] | MIC ([2]; with CK-4 25 μg/ml) [µg/mL] | MIC [2, 10] [µg/mL] | MIC ([3]; with CK-4 6.25 μg/ml) [µg/mL] | MIC ([3]; with CK-4 12.5 μg/ml) [µg/mL] | MIC ([3]; with CK-4 25 μg/ml) [µg/mL] | MIC [3, 11] [µg/mL] | MIC ([4]; with CK-4 6.25 μg/ml) [µg/mL] | MIC ([4]; with CK-4 12.5 μg/ml) [µg/mL] | MIC ([4]; with CK-4 25 μg/ml) [µg/mL] | MIC [4, 12] [µg/mL] | reduction in MIC in combination with chalcone compound [5] | other results
CCCCc1ccc(O)c(-c2cc(CCCC)ccc2O)c1 [Butyl magnolol, 5,5′-dibutylbiphenyl-2,2′-diol] | 0.65 | 0.24 | 2.0 | 2.0 | 1.0 | 2 | 4.0 | 2.0 | 1.0 | 4 | 4.0 | 2.0 | 1.0 | 4 | Two to four-fold | 
C=CCc1ccc(O)c(-c2ccc(O)c(CC=C)c2)c1 [Honokiol, honokiol] | 5.21 | 2.60 | 1.0 | 1.0 | 0.5 | 2 | 2.0 | 1.0 | 0.5 | 4 | 2.0 | 1.0 | 0.5 | 4 | Four to eight-fold | 
C=CCc1ccc(O)c(-c2cc(CC=C)ccc2O)c1 [Magnolol, magnolol] | 3.91 | 1.95 | 1.0 | 1.0 | 0.5 | 2 | 2.0 | 1.0 | 0.5 | 4 | 1.0 | 0.5 | 0.25 | 4 | Up to sixteen-fold | 
CCCc1ccc(O)c(-c2ccc(O)c(CCC)c2)c1 [Propyl Honokiol, propyl honokiol] | 0.49 | 0.65 |  |  |  |  |  |  |  |  |  |  |  |  |  | 
O=C([O-])CC(O)(CC(=O)[O-])C(=O)[O-].O=C([O-])CC(O)(CC(=O)[O-])C(=O)[O-].[Zn+2].[Zn+2].[Zn+2] [Zinc Citrate] | 41.67 | 20.83 |  |  |  |  |  |  |  |  |  |  |  |  |  | 
O=C(O)c1cn(C2CC2)c2cc(N3CCNCC3)c(F)cc2c1=O [ciprofloxacin] |  |  |  |  |  |  |  |  |  |  |  |  |  |  |  | ED50 ([6]; ciprofloxacin alone, mice infected i.v. with S. aureus ATCC 29213, two doses 6 hrs apart): 9.2 mg/kg; ED50 ([6]; in combination with the CK-4, mice infected i.v. with S. aureus ATCC 29213, two doses 6 hrs apart): 5.86 mg/kg; MIC ([7]; read-out: MIC (μg/ml) of ciprofloxacin for Staphylococcus aureus 1199B, ciprofloxacin alone): 8 µg/mL; MIC ([7]; read-out: MIC (μg/ml) of ciprofloxacin for Staphylococcus aureus 1199B, in combination with CK-4 6.25 μg/ml): 4 µg/mL; MIC ([7]; read-out: MIC (μg/ml) of ciprofloxacin for Staphylococcus aureus 1199B, in combination with CK-4 12.5 μg/ml): 2 µg/mL; MIC ([7]; read-out: MIC (μg/ml) of ciprofloxacin for Staphylococcus aureus 1199B, in combination with CK-4 25.0 μg/ml): 1 µg/mL; MIC ([7]; read-out: MIC (μg/ml) of ciprofloxacin for Staphylococcus aureus 1199B, in combination with CK-4 50.0 μg/ml): 0.5 µg/mL; reduction in MIC of ciprofloxacin [7, 13]: Up to sixteen-fold; reduction in MIC of ciprofloxacin [7, 14]: Up to eight-fold
CC[C@H]1OC(=O)[C@H](C)[C@@H](O[C@H]2C[C@@](C)(OC)[C@@H](O)[C@H](C)O2)[C@H](C)[C@@H](O[C@@H]2O[C@H](C)C[C@H](N(C)C)[C@H]2O)[C@](C)(O)C[C@@H](C)C(=O)[C@H](C)[C@@H](O)[C@]1(C)O [erythromycin] |  |  |  |  |  |  |  |  |  |  |  |  |  |  |  | MIC ([8]; read-out: MIC (μg/ml) of erythromycin for Staphylococcus aureus SA-K2191, erythromycin alone): 64 µg/mL; MIC ([8]; read-out: MIC (μg/ml) of erythromycin for Staphylococcus aureus SA-K2191, in combination with CK-4 6.25 μg/ml): 64 µg/mL; MIC ([8]; read-out: MIC (μg/ml) of erythromycin for Staphylococcus aureus SA-K2191, in combination with CK-4 12.5 μg/ml): 32 µg/mL; MIC ([8]; read-out: MIC (μg/ml) of erythromycin for Staphylococcus aureus SA-K2191, in combination with CK-4 25.0 μg/ml): 16 µg/mL; MIC ([8]; read-out: MIC (μg/ml) of erythromycin for Staphylococcus aureus SA-K2191, in combination with CK-4 50.0 μg/ml): 8 µg/mL; reduction in MIC of erythromycin [8, 13]: Up to eight-fold; reduction in MIC of erythromycin [8, 14]: Up to four-fold
CN(C)[C@@H]1C(O)=C(C(N)=O)C(=O)[C@@]2(O)C(O)=C3C(=O)c4c(O)cccc4[C@@](C)(O)[C@H]3C[C@@H]12 [tetracycline] |  |  |  |  |  |  |  |  |  |  |  |  |  |  |  | MIC ([9]; read-out: MIC (μg/ml) of tetracycline for Staphylococcus aureus SA-K2192, in combination with CK-4 6.25 μg/ml): 32 µg/mL; MIC ([9]; read-out: MIC (μg/ml) of tetracycline for Staphylococcus aureus SA-K2192, in combination with CK-4 12.5 μg/ml): 16 µg/mL; MIC ([9]; read-out: MIC (μg/ml) of tetracycline for Staphylococcus aureus SA-K2192, in combination with CK-4 25.0 μg/ml): 8 µg/mL; MIC ([9]; read-out: MIC (μg/ml) of tetracycline for Staphylococcus aureus SA-K2192, in combination with CK-4 50.0 μg/ml): 4 µg/mL; MIC ([9]; read-out: MIC (μg/ml) of tetracycline for Staphylococcus aureus SA-K2192, tetracycline alone): 32 µg/mL
Catechin | 26.04 | 26.04 |  |  |  |  |  |  |  |  |  |  |  |  |  | 
